Measurements taken from US7473708B2, “Agents with leukotriene B4-like antiviral (enveloped RNA) activities” (priority 1996, dated 2009).

Columns and labels:
EBV [1] = test: Detection of Epstein-Barr Nuclear Antigen (EBNA) in EBV-infected PBMC (ACIF test); format: cell-based, human; settings: 100 nM analog, PBMC, six days, EBNA by ACIF
Experimental: After ten days of culture, cells were harvested for determination of the presence of Epstein-Barr Nuclear Antigen (EBNA), a consequence of EBV infection. Preparation of cell smears, fixation and detection of EBNA by the anti-complement immunofluorescence (ACIF) test were carried out as described by Reedman B. M. and Klein G. (Int. J. Cancer, 1973, 11:499). Smears were prepared by spreading 50 μl of a concentrated suspension of washed cells (2×10^6/ml) on clean slides, air dried and fixed in cold acetone (−20° C.) during 10 minutes. Human serum (50 μl) from EBV seropositive donor was used as a source of complement. Slides were incubated at room temperature in a humid chamber during 45 minutes. Slides were then washed three times in phosphate buffer saline (PBS) and stained with 50 μl of fluorescein-5-isothiocyanate (FITC “Isomer I”)-conjugated goat IgG fraction anti-human complement C3 (Cappel Research Products, Durham, N.C.) during 60 minutes at room temperature in a humid chamber. Slides were washed in PBS (3 times), mounted in PBS:glycerol 1:1 and examined. Raji and U937 cells were used as positive and negative controls, respectively. The percentage of EBNA-positive cells was decreased by more than 55% with 30 nM LTB4, and by more than 70% with 100 nM LTB4 (FIG. 2). The results illustrated in FIG. 2 are representative of six (6) other experiments.
(§1) PBMC were infected with EBV and HSV-1 and treated or not with 100 nM of analogs of LTB4 such as 20-OH-LTB4, LTA3 methyl ester, 12(R)-HETE and 5(S), 15(S)-diHETE. After six days of culture, the presence of EBNA antigen (a consequence of EBV infection) was evaluated by the ACIF test, as described in Example I. Similarly, the presence of HSV-1 antigen in PBMC was evaluated by immunofluorescence using an antiserum obtained from a chronically infected donor as described above in section entitled “Detection of Specific HSV-1 Antigen”. […] The results illustrated in Table 1 are representative of three other experiments.

HSV-1 (strain McIntyre) = test: Detection of specific HSV-1 antigen in HSV-1-infected PBMC (immunofluorescence); format: cell-based, human; settings: 100 nM analog, six days, antiserum immunofluorescence
Experimental: Synthesis of the viral antigen was inhibited by 60% in the presence of 100 nM LTB4 (FIG. 4). The results illustrated in FIG. 4 are representative of five (5) other experiments.
as §1

HSV = settings: in vitro, read-out: IC50, viral replication; cited from earlier work
EBV [2] = settings: in vitro, read-out: IC50, viral replication; cited from earlier work

CCCCC[C@H](O)/C=C/C=C\C/C=C\C=C\[C@@H](O)CCCC(=O)O [5(S),15(S)-diHETE, 5(S),15(S)-dihydroxy-6,8,11,13-(E,Z,Z,E)-eicosatetrae-noic acid]
EBV infection, percentage of inhibition compared to infected PBMC cultured in the absence of analogs (EBV [1]): 50%

CCCCC/C=C\C[C@@H](O)/C=C/C=C\C/C=C\CCCC(=O)O [12(R)-HETE, 12(R)-hydroxy-5,8,10,14(Z,Z,E,Z)-eicosatetraenoic acid]
EBV infection, percentage of inhibition compared to infected PBMC cultured in the absence of analogs (EBV [1]): 65% | HSV-1 infection, percentage of inhibition compared to infected PBMC cultured in the absence of analogs (HSV-1 (strain McIntyre)): 70%

O=C(O)CCC[C@H](O)\C=C/C=C/C=C/[C@H](O)C/C=C\CCCCCO [20-OH-LTB4, 20-hydroxy-LTB4]
HSV-1 infection, percentage of inhibition compared to infected PBMC cultured in the absence of analogs (HSV-1 (strain McIntyre)): 74%

CCCCCCCC\C=C/C=C/C=C/[C@@H]1O[C@H]1CCCC(=O)OC [LTA3 methyl ester, 14,15-dihydro-LTA4 methyl ester]
EBV infection, percentage of inhibition compared to infected PBMC cultured in the absence of analogs (EBV [1]): 65% | HSV-1 infection, percentage of inhibition compared to infected PBMC cultured in the absence of analogs (HSV-1 (strain McIntyre)): 60%

Nc1nc(O)c2ncn(COC(CO)CO)c2n1 [ganciclovir]
IC50 (HSV): 2.4 µM | IC50 (EBV [2]): 1 µM
